Measured values reported in PubChem BioAssay (NCI).
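Values below derive from 48-hour exposures of cells grown in 96-well plates, with endpoints linearly interpolated between the two concentrations bracketing the appropriate inhibition level. Definition used: TGI = concentration required for complete inhibition of growth.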

Assays:
Experiment in all cases: NCI tumour cell line growth inhibition, 48 h
[1] = tested on: 786-0 renal
[2] = tested on: A498 renal
[3] = tested on: A549 NSCLC
[4] = tested on: ACHN renal
[5] = tested on: BT-549 breast
[6] = tested on: CAKI-1 renal
[7] = tested on: CCRF-CEM leukemia
[8] = tested on: COLO 205 colon
[9] = tested on: DU-145 prostate
[10] = tested on: EKVX NSCLC
[11] = tested on: HCT-116 colon
[12] = tested on: HCT-15 colon
[13] = tested on: HL-60(TB) leukemia
[14] = tested on: HOP-62 NSCLC
[15] = tested on: HOP-92 NSCLC
[16] = tested on: HS 578T breast
[17] = tested on: HT29 colon
[18] = tested on: IGROV1 ovarian
[19] = tested on: K-562 leukemia
[20] = tested on: KM12 colon
[21] = tested on: LOX IMVI melanoma
[22] = tested on: M14 melanoma
[23] = tested on: MALME-3M melanoma
[24] = tested on: MCF7 breast
[25] = tested on: MDA-MB-231 breast
[26] = tested on: MDA-MB-435
[27] = tested on: MDA-N
[28] = tested on: MOLT-4 leukemia
[29] = tested on: NCI-H226 lung
[30] = tested on: NCI-H23 lung
[31] = tested on: NCI-H460 lung
[32] = tested on: NCI-H522 lung
[33] = tested on: NCI/ADR-RES ovarian
[34] = tested on: OVCAR-3 ovarian
[35] = tested on: OVCAR-4 ovarian
[36] = tested on: OVCAR-5 ovarian
[37] = tested on: OVCAR-8 ovarian
[38] = tested on: PC-3 prostate
[39] = tested on: RPMI-8226 leukemia
[40] = tested on: RXF 393 renal
[41] = tested on: SF-268 CNS
[42] = tested on: SF-295 CNS
[43] = tested on: SF-539 CNS
[44] = tested on: SK-MEL-2 melanoma
[45] = tested on: SK-MEL-28 melanoma
[46] = tested on: SK-MEL-5 melanoma
[47] = tested on: SK-OV-3 ovarian
[48] = tested on: SN12C renal
[49] = tested on: SNB-19 CNS
[50] = tested on: SNB-75 CNS
[51] = tested on: SR leukemia
[52] = tested on: SW-620 colon
[53] = tested on: T-47D breast
[54] = tested on: TK-10 renal
[55] = tested on: U251 CNS
[56] = tested on: UACC-257 melanoma
[57] = tested on: UACC-62 melanoma
[58] = tested on: UO-31 renal
[59] = tested on: HCC-2998 colon

## CC(C)c1ccc(/C(C(=O)O)=C(\O)C(=O)O)cc1
[1]
  TGI: > 100 µM
[2]
  TGI: > 100 µM
[3]
  TGI: > 100 µM
[4]
  TGI: > 100 µM
[5]
  TGI: > 100 µM
[6]
  TGI: > 100 µM
[7]
  TGI: > 100 µM
[8]
  TGI: > 100 µM
[9]
  TGI: > 100 µM
[10]
  TGI: > 100 µM
[11]
  TGI: > 100 µM
[12]
  TGI: > 100 µM
[13]
  TGI: > 100 µM
[14]
  TGI: > 100 µM
[15]
  TGI: > 100 µM
[16]
  TGI: > 100 µM
[17]
  TGI: > 100 µM
[18]
  TGI: > 100 µM
[19]
  TGI: > 100 µM
[20]
  TGI: > 100 µM
[21]
  TGI: > 100 µM
[22]
  TGI: > 100 µM
[23]
  TGI: > 100 µM
[24]
  TGI: > 100 µM
[25]
  TGI: > 100 µM
[26]
  TGI: > 100 µM
[27]
  TGI: > 100 µM
[28]
  TGI: > 100 µM
[29]
  TGI: > 100 µM
[30]
  TGI: > 100 µM
[31]
  TGI: > 100 µM
[32]
  TGI: > 100 µM
[33]
  TGI: > 100 µM
[34]
  TGI: > 100 µM
[35]
  TGI: > 100 µM
[36]
  TGI: > 100 µM
[37]
  TGI: > 100 µM
[38]
  TGI: > 100 µM
[39]
  TGI: > 100 µM
[40]
  TGI: > 100 µM
[41]
  TGI: > 100 µM
[42]
  TGI: > 100 µM
[43]
  TGI: > 100 µM
[44]
  TGI: > 100 µM
[45]
  TGI: > 100 µM
[46]
  TGI: > 100 µM
[47]
  TGI: > 100 µM
[48]
  TGI: > 100 µM
[49]
  TGI: > 100 µM
[50]
  TGI: > 100 µM
[51]
  TGI: > 100 µM
[52]
  TGI: > 100 µM
[53]
  TGI: > 100 µM
[54]
  TGI: > 100 µM
[55]
  TGI: > 100 µM
[56]
  TGI: > 100 µM
[57]
  TGI: > 100 µM
[58]
  TGI: > 100 µM

## CCOC(=O)Nc1c(C#N)[n+]([O-])c2cc(Cl)c(Cl)cc2[n+]1[O-]
[1]
  TGI: 41.7 µM
[2]
  TGI: 25 µM
[3]
  TGI: 69.8 µM
[5]
  TGI: 36.3 µM
[6]
  TGI: 40.4 µM
[7]
  TGI: 22.9 µM
[8]
  TGI: 30.3 µM
[9]
  TGI: > 100 µM
[11]
  TGI: 59.3 µM
[12]
  TGI: 25.8 µM
[14]
  TGI: > 100 µM
[15]
  TGI: 23 µM
[16]
  TGI: > 100 µM
[17]
  TGI: 37.3 µM
[18]
  TGI: 28.6 µM
[19]
  TGI: 39.9 µM
[20]
  TGI: 64.8 µM
[21]
  TGI: 27.9 µM
[22]
  TGI: 38.9 µM
[23]
  TGI: 37.6 µM
[24]
  TGI: 41.3 µM
[25]
  TGI: 35.8 µM
[26]
  TGI: 36.6 µM
[27]
  TGI: 43 µM
[28]
  TGI: 28.7 µM
[29]
  TGI: 42.9 µM
[30]
  TGI: 53.9 µM
[31]
  TGI: 34.5 µM
[33]
  TGI: 52.2 µM
[34]
  TGI: 42.6 µM
[35]
  TGI: 29.4 µM
[37]
  TGI: 37.2 µM
[38]
  TGI: 31.8 µM
[39]
  TGI: 16.7 µM
[40]
  TGI: 33 µM
[41]
  TGI: 34.3 µM
[42]
  TGI: 34 µM
[43]
  TGI: 30.9 µM
[44]
  TGI: 48 µM
[45]
  TGI: 30.7 µM
[46]
  TGI: 24.9 µM
[47]
  TGI: 66 µM
[48]
  TGI: 32 µM
[49]
  TGI: 65.9 µM
[50]
  TGI: 41.8 µM
[51]
  TGI: 24.3 µM
[52]
  TGI: 56.5 µM
[53]
  TGI: 54.2 µM
[54]
  TGI: > 100 µM
[55]
  TGI: 32.6 µM
[56]
  TGI: 36.1 µM
[57]
  TGI: 31.1 µM
[58]
  TGI: 31.4 µM

## O=c1c(SSc2coc3cc(F)ccc3c2=O)coc2cc(F)ccc12
[1]
  TGI: 21.6 µM
[3]
  TGI: > 100 µM
[4]
  TGI: 26.1 µM
[5]
  TGI: > 100 µM
[6]
  TGI: 43.3 µM
[7]
  TGI: 37.9 µM
[8]
  TGI: 43.2 µM
[9]
  TGI: > 100 µM
[10]
  TGI: 99.3 µM
[59]
  TGI: 35.6 µM
[11]
  TGI: 19.3 µM
[12]
  TGI: 33.3 µM
[13]
  TGI: 54.7 µM
[14]
  TGI: > 100 µM
[16]
  TGI: 68 µM
[17]
  TGI: 32.3 µM
[18]
  TGI: 20.2 µM
[19]
  TGI: 64.2 µM
[20]
  TGI: 28.5 µM
[21]
  TGI: 8.21 µM
[23]
  TGI: > 100 µM
[24]
  TGI: 43.6 µM
[25]
  TGI: 37.1 µM
[26]
  TGI: 36.3 µM
[27]
  TGI: 34.3 µM
[28]
  TGI: 69.6 µM
[29]
  TGI: > 100 µM
[30]
  TGI: > 100 µM
[31]
  TGI: 98.3 µM
[32]
  TGI: 47.3 µM
[33]
  TGI: 78.8 µM
[34]
  TGI: > 100 µM
[36]
  TGI: > 100 µM
[37]
  TGI: > 100 µM
[38]
  TGI: 21.5 µM
[39]
  TGI: > 100 µM
[40]
  TGI: > 100 µM
[41]
  TGI: > 100 µM
[42]
  TGI: > 100 µM
[43]
  TGI: > 100 µM
[45]
  TGI: 30.4 µM
[46]
  TGI: 46.2 µM
[48]
  TGI: 36.6 µM
[49]
  TGI: > 100 µM
[50]
  TGI: 33.6 µM
[51]
  TGI: > 100 µM
[52]
  TGI: 43 µM
[53]
  TGI: 46.6 µM
[54]
  TGI: 66.5 µM
[55]
  TGI: 79 µM
[56]
  TGI: 77 µM
[57]
  TGI: 36.1 µM
[58]
  TGI: 52.7 µM

## CCCCNN
[1]
  TGI: > 100 µM
[2]
  TGI: > 100 µM
[3]
  TGI: > 100 µM
[4]
  TGI: > 100 µM
[5]
  TGI: > 100 µM
[6]
  TGI: > 100 µM
[7]
  TGI: > 100 µM
[8]
  TGI: > 100 µM
[9]
  TGI: > 100 µM
[10]
  TGI: > 100 µM
[11]
  TGI: > 100 µM
[12]
  TGI: > 100 µM
[13]
  TGI: > 100 µM
[14]
  TGI: > 100 µM
[16]
  TGI: > 100 µM
[17]
  TGI: > 100 µM
[18]
  TGI: > 100 µM
[19]
  TGI: > 100 µM
[20]
  TGI: > 100 µM
[21]
  TGI: > 100 µM
[22]
  TGI: > 100 µM
[23]
  TGI: > 100 µM
[24]
  TGI: > 100 µM
[25]
  TGI: > 100 µM
[26]
  TGI: > 100 µM
[27]
  TGI: > 100 µM
[28]
  TGI: > 100 µM
[29]
  TGI: > 100 µM
[30]
  TGI: > 100 µM
[32]
  TGI: > 100 µM
[33]
  TGI: > 100 µM
[34]
  TGI: > 100 µM
[35]
  TGI: > 100 µM
[36]
  TGI: > 100 µM
[37]
  TGI: > 100 µM
[38]
  TGI: > 100 µM
[39]
  TGI: > 100 µM
[40]
  TGI: > 100 µM
[42]
  TGI: > 100 µM
[44]
  TGI: > 100 µM
[45]
  TGI: > 100 µM
[46]
  TGI: > 100 µM
[47]
  TGI: > 100 µM
[48]
  TGI: > 100 µM
[49]
  TGI: > 100 µM
[50]
  TGI: > 100 µM
[51]
  TGI: > 100 µM
[52]
  TGI: > 100 µM
[53]
  TGI: > 100 µM
[54]
  TGI: > 100 µM
[55]
  TGI: > 100 µM
[56]
  TGI: > 100 µM
[57]
  TGI: > 100 µM
[58]
  TGI: > 100 µM
